Patent US20030070184A1, “LIGANDS FOR DISCOIDIN DOMAIN RECEPTOR TYROSINE KINASES AND COMPLEXES THEREOF” (priority 1999, published 2003)
Where a SMILES comes first, the peptide text is derived from it. [ ]: non-standard residue; d: D form. pY = N[C@@H](Cc1ccc(OP(=O)(O)O)cc1)C(=O)O

Experiments:
[1] = biological target: T1, Shc PTB domain (Homo sapiens, UniProt P29353); assay: Surface plasmon resonance competition: GST-Shc PTB domain binding to immobilized middle T antigen phosphopeptide; details: BIAcore, soluble competing phosphopeptide; read-out: IC50, inhibition of binding of the Shc PTB domain to the middle T antigen phosphopeptide
T1 construct: the PTB domain fusion construct comprises amino acids 1-225 of human p52 Shc; made in house; host or cells: E. coli
T1 sequence (P29353 1-225 isoform P29353-2): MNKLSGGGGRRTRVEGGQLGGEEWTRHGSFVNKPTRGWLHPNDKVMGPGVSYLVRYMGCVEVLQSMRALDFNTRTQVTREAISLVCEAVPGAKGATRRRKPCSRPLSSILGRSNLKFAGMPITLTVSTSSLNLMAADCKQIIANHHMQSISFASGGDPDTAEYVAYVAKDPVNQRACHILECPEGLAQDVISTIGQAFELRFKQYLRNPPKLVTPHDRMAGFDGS
Experimental: Surface plasmon resonance—experiments were done with a BIAcore instrument (Pharmacia). A phosphopeptide corresponding to the NPXY sequence in the polyomavirus middle T antigen (mT) (LSLLSNPTpYSVNSK) was absorbed to the surface of a biosensor chip. Binding of soluble GST-Shc PTB domain fusion protein to the mT peptide was measured in the presence or absence of competing soluble phosphopeptides based on the sequences around Tyr 513 of DDR1b or Tyr 490 of the NGFR (HIIENPQpYFSD) (21).
Experiments were done with a BIAcore instrument (Pharmacia). A phosphopeptide corresponding to the NPXY sequence in the polyomavirus middle T antigen (LSLLSNPTpYSVMRSK) was absorbed to the surface of a biosensor chip. Binding of soluble GST-Shc PTB domain fusion protein to the middle T peptide was measured in presence or absence of competing soluble phosphopeptides based on the sequences around tyrosine 513 of DDR1b (ALLLSNPApYRLLLA) or tyrosine 490 of the NGF receptor (HIIENPQpYFSD).

[2] = biological target: T2, Shc PTB domain binding to DDR1b (Homo sapiens, UniProt P29353); assay: GST-Shc PTB pull-down of tyrosine phosphorylated DDR1b from 293 lysates, competition by phosphopeptide; details: lysates of transfected, orthovanadate-treated 293 cells
T2 construct: the PTB domain fusion construct comprises amino acids 1-225 of human p52 Shc; made in house; host or cells: GST-Shc PTB: E. coli; DDR1b: lysate of transiently transfected, orthovanadate-treated 293 cells
T2 sequence (P29353 1-225 isoform P29353-2): T1 sequence (P29353 1-225 isoform P29353-2)
Experimental: The results presented above raise the possibility that the Shc PTB domain binds to phosphorylated Tyr 513, which lies within the motif LLSNPAY in the DDR1b juxtamembrane insert. To test whether phosphorylation of Tyr 513 might form a PTB-binding site, a 14-mer phosphopeptide with the sequence ALLLSNPApYRLLLA was synthesized, corresponding to residues 505-518 of DDR1b. The ability of this phosphopeptide to bind the Shc PTB domain was analysed using a competition assay, in which the capacity of GST-Shc PTB fusion protein to bind tyrosine phosphorylated DDR1b from lysates of transfected 293 cells was measured in the presence of increasing amounts of the Tyr 513 phosphopeptide. […] To quantitate this interaction more precisely, surface plasmon resonance technology was used, in which soluble DDR1b phosphopeptide was employed to inhibit binding of the GST-Shc PTB fusion protein to a polyomavirus middle T antigen phosphopeptide, immobilized on a biosensor chip (21).
FIGS. 2A and 2B. Phosphorylation of Tyr 513 in the MCK10b (DDR1b) juxtamembrane insert forms a Shc PTB-binding site. […] Bound protein was detected by immunoblotting with antibodies to MCK10. […]

[3] = test system: MMP-1; assay: MMP-1 expression in HT 1080 cells (Western blot of conditioned media); type: cell-based, human; details: collagen type I 10 μg/ml, or TPA
Experimental: The full length cDNA of DDR2 was stabilely expressed in HT 1080 cells using a retroviral expression construct (pLXSN). Neomycin resistant clones were tested for DDR2 expression. Parental and DDR2 overexpressing cells were cultivated in serum free medium and stimulated with 10 μg/ml collagen type I for various periods of time. The conditioned medium was 20-fold concentrated and analyzed for the presence of MMP-1 by Western blotting with the monoclonal antibody 41-IE5 (Oncogene Research Products; Cambridge, Mass.).

[4] = biological target: T3, DDR1b (Homo sapiens, UniProt Q08345); assay: Tyrosine phosphorylation of endogenous DDR1b in carcinoma cells (T-47D; A431), immunoprecipitation and anti-phosphotyrosine blot; type: cell-based; details: PDGF or EGF 5 min, collagen type I overnight
T3 construct: endogenous in cells; host or cells: T-47D human mammary carcinoma cells (A431 also named)
Description: To investigate the effects of collagen on cells that express endogenous DDR tyrosine kinases, the mammary carcinoma cell line T-47D was employed. Previous results have shown that DDR1 is highly expressed in human carcinoma cell lines, in particular, the breast cancer cell lines BT-20, MDA-MB-175 and T-47D (1) (Perez et al., 1996). […] The time course of endogenous DDR1b tyrosine phosphorylation in T-47D cells was even slower than in 293 cells, with maximal activation being achieved only after stimulation for 18 hours.
To further investigate the role of different types of collagen in the activation of DDR1 and DDR2, collagen types I, II, III and V purified from human placenta and collagen type II from bovine tracheal cartilage were obtained. To test their ability to induce receptor tyrosine phosphorylation, 293 cells overexpressing DDR1 or DDR2 were employed. […] The various types of collagen were also tested for their ability to stimulate tyrosine phosphorylation of endogenous DDR1b present in T-47D cells. For this purpose, DDR1b was immunoprecipitated from lysates of stimulated T-47D cells and analyzed by Western blotting with anti-phosphotyrosine antibodies. […] As previously shown, DDR1 tyrosine phosphorylation could also be activated by treating cells with 1 mM orthovanadate, an inhibitor of tyrosine phosphatases. Furthermore, gelatin which contains heat denatured collagen was tested for its capacity to induce DDR1b tyrosine phosphorylation.
Integrins of the type α1β1 and α2β1 have long been known to be receptors for collagen. Therefore, tests were conducted to determine if these integrins are somehow involved in the activation of DDR1b. The mammary carcinoma cell line T-47D, which endogenously expresses the b-isoform of DDR1, was used. Monoclonal antibodies directed against the extracellular domains of integrins can block binding to collagen and therefore signaling of integrins. T-47D cells were treated with antibody A2-IIE10 against α2-integrin and antibody DE9 against β1-integrin (both from Upstate Biotechnology) in the absence or presence of 10 μg/ml collagen type I overnight. DDR1b or Shc were immunoprecipitated from cellular lysates and analyzed by Western blotting with antiphosphotyrosine antibody.
DDR1b and DDR2 were transfected into 293 cells and were stimulated with 10 µg/ml mouse collagen type I for different periods of time. (FIG. 9A and FIG. 9B) Total cellular lysates were probed with antiphosphotyrosine antibody. Maximal activation is seen 90 min after stimulation of DDR1b (FIG. 9A) and DDR2 (FIG. 9B). (FIG. 9C) Human mammary carcinoma T-47D cells were cultivated on 10 cm dishes to confluence and starved in 0.5% serum overnight. Cells were stimulated with collagen type I for various periods of time and lysed. DDR1b was immunoprecipitated from the lysates and analyzed by Western blotting with antiphosphotyrosine antibody. Maximal phosphorylation of DDR1b is seen after stimulation for 18 h. An unidentified, tyrosine phosphorylated protein with an apparent molecular weight of 115 kDa is copurified in the immunoprecipitations. […] Prolonged stimulation with collagen increases the processing of DDR1b in T-47D cells, indicated by an additional 62 kDa band. (FIGS. 9E and 9F) DDR1b was immunoprecipitated from overexpressing 293 cells (E) and T-47D (FIG. 9F) cells and subjected to an in vitro kinase reaction. The incorporation of [^32P]-phosphate is monitored by SDS-PAGE followed by autoradiograpy.

[5] = test system: MAPK; assay: MAPK activation (mobility shift) in T-47D or HT 1080-DDR2 cells; type: cell-based, human; details: T-47D or HT 1080 overexpressing DDR2; PDGF or EGF 5 min, collagen type I overnight
Experimental: T-47D or HT 1080 overexpressing DDR2 cells were stimulated with PDGF or EGF for 5 min, with collagen type I overnight and with a combination of EGF/collagen or PDGF/collagen. […] Furthermore, activation of MAPK by EGF is not influenced by simultaneous activation of DDR receptors.

T3 sequence (Q08345 19-913): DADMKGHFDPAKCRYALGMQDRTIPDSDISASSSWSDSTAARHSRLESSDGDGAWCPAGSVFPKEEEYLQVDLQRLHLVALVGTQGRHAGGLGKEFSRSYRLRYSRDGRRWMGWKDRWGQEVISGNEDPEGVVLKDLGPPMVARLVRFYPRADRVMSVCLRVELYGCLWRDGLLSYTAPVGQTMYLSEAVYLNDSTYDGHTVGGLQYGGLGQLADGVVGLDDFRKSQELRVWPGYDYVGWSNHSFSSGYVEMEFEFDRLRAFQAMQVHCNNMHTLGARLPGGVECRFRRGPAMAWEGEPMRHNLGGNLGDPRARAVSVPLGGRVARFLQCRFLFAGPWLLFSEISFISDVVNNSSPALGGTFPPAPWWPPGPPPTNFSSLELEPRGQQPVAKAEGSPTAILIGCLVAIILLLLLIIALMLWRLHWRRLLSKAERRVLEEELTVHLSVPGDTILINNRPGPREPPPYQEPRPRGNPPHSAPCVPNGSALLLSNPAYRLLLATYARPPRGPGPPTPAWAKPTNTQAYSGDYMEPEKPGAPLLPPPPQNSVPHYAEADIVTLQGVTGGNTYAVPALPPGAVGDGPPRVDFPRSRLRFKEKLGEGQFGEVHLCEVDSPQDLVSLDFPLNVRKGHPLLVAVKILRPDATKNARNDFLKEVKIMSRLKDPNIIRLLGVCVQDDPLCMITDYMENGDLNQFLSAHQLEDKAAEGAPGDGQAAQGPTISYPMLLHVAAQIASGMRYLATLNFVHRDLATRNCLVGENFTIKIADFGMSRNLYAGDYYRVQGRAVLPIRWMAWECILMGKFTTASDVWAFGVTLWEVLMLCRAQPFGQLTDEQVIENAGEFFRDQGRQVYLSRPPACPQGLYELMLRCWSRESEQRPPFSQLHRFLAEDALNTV

## CC(C)C[C@H](NC(=O)[C@H](C)N)C(=O)N[C@@H](CC(C)C)C(=O)N[C@@H](CC(C)C)C(=O)N[C@@H](CO)C(=O)N[C@@H](CC(N)=O)C(=O)N1CCC[C@H]1C(=O)N[C@@H](C)C(=O)N[C@@H](Cc1ccc(OP(=O)(O)O)cc1)C(=O)N[C@@H](CCCNC(=N)N)C(=O)N[C@@H](CC(C)C)C(=O)N[C@@H](CC(C)C)C(=O)N[C@@H](CC(C)C)C(=O)N[C@@H](C)C(=O)O [DDR1b phosphopeptide, ALLLSNPApYRLLLA] (H-ALLLSNPA[pY]RLLLA-OH; N-terminus and C-terminus assumed)
[1]
  IC50: ~800 nM
[2]
  phosphopeptide concentration for full inhibition of Shc PTB binding to DDR1b: 2 µM
  phosphopeptide concentration that inhibited binding of the Shc PTB domain to DDR1b: 100 nM

## CCCCCCCCCCCCCC(=O)O[C@@H]1[C@@H](C)[C@@]2(O)[C@@H](C=C(CO)C[C@]3(O)C(=O)C(C)=C[C@@H]23)[C@@H]2C(C)(C)[C@]12OC(C)=O [TPA, phorbol 12-myristate 13-acetate]
[3]; 4 days
  expression of MMP-1 in HT 1080 cells overexpressing DDR2: induced
[3]
  expression of MMP-1 in parental HT 1080 cells: induced

## PDGF [reference compound]
[4]
  activation of DDR1b in T-47D cells: not
[5]
  MAPK activation: not
